For 19 compounds, activity coefficient results are on record in the NIST ThermoML archive (doi:10.1016/j.fluid.2009.08.017).

The data set is described as follows: activity coefficient (dimensionless); of the first substance listed, at infinite dilution; xn = mol fraction of the nth substance listed. Conditions: 101 kPa, Liquid, Chromatography, x1 = 0.

± gives the expanded uncertainty stated by the source.

Regarding `CO` [methanol] + CCCCCCOCn1cc[n+](COCCCCCC)c1.O=S(=O)([N-]S(=O)(=O)C(F)(F)F)C(F)(F)F, the activity coefficient turned out to be 1.17 ± 0.07 (298.15 K); 1.06 ± 0.067 (308.15 K); 0.978 ± 0.061 (318.15 K); 0.9 ± 0.057 (328.15 K); 0.834 ± 0.054 (338.15 K); 0.776 ± 0.051 (348.15 K). The activity coefficient by setting is: (358.15 K) 0.725 ± 0.048; (368.15 K) 0.681 ± 0.046.
Regarding `CCCCCCCCC` [nonane] + CCCCCCOCn1cc[n+](C)c1.O=S(=O)([N-]S(=O)(=O)C(F)(F)F)C(F)(F)F, the activity coefficient is 17.8 ± 1.2 (298.15 K); 16.6 ± 1.1 (308.15 K); 15.5 ± 1.1 (318.15 K); 14.6 ± 1 (328.15 K); 13.8 ± 0.9 (338.15 K); 13.2 ± 0.9 (348.15 K). Also, the activity coefficient reads like this: (358.15 K) 12.4 ± 0.8; (368.15 K) 11.9 ± 0.8.
For the compound `CCCCCCCCC` [nonane] + CCCCCCOCn1cc[n+](COCCCCCC)c1.O=S(=O)([N-]S(=O)(=O)C(F)(F)F)C(F)(F)F, the activity coefficient (298.15 K) stood at 5.93 ± 0.4; the activity coefficient (308.15 K) is 5.67 ± 0.39; the activity coefficient (318.15 K) was determined as 5.42 ± 0.37; the activity coefficient (328.15 K) turned out to be 5.22 ± 0.36; the activity coefficient (338.15 K) is 5.01 ± 0.34; the activity coefficient (348.15 K) was 4.84 ± 0.33. Besides, the activity coefficient (358.15 K) is 4.68 ± 0.32 and the activity coefficient (368.15 K) was 4.53 ± 0.31.
Consider `C=CCCCCCC` [oct-1-ene] + CCCCCCOCn1cc[n+](C)c1.O=S(=O)([N-]S(=O)(=O)C(F)(F)F)C(F)(F)F, for which the activity coefficient is, setting by setting: (298.15 K) 7.97 ± 0.54; (308.15 K) 7.67 ± 0.52; (318.15 K) 7.39 ± 0.5; (328.15 K) 7.12 ± 0.49; (338.15 K) 6.89 ± 0.47; (348.15 K) 6.69 ± 0.46. Moreover, the activity coefficient was determined as 6.5 ± 0.44 (358.15 K) and 6.34 ± 0.43 (368.15 K).
On to `C=CCCCCCC` [oct-1-ene] + CCCCCCOCn1cc[n+](COCCCCCC)c1.O=S(=O)([N-]S(=O)(=O)C(F)(F)F)C(F)(F)F, for which the activity coefficient by setting is: (298.15 K) 3.28 ± 0.22; (308.15 K) 3.2 ± 0.22; (318.15 K) 3.12 ± 0.21; (328.15 K) 3.05 ± 0.21; (338.15 K) 2.99 ± 0.2; (348.15 K) 2.93 ± 0.2. The activity coefficient was 2.87 ± 0.2 (358.15 K) and 2.83 ± 0.19 (368.15 K).
For `CCCCCCCC` [octane] + CCCCCCOCn1cc[n+](C)c1.O=S(=O)([N-]S(=O)(=O)C(F)(F)F)C(F)(F)F, the activity coefficient was 13.6 ± 0.9 (298.15 K); 12.8 ± 0.9 (308.15 K); 12.1 ± 0.8 (318.15 K); 11.5 ± 0.8 (328.15 K); 10.9 ± 0.7 (338.15 K); 10.4 ± 0.7 (348.15 K). The activity coefficient (358.15 K) stood at 10 ± 0.7 and the activity coefficient (368.15 K) amounted to 9.51 ± 0.65.
As for `CCCCCCCC` [octane] + CCCCCCOCn1cc[n+](COCCCCCC)c1.O=S(=O)([N-]S(=O)(=O)C(F)(F)F)C(F)(F)F, the activity coefficient reads like this: (298.15 K) 4.8 ± 0.33; (308.15 K) 4.62 ± 0.31; (318.15 K) 4.45 ± 0.3; (328.15 K) 4.3 ± 0.29; (338.15 K) 4.16 ± 0.28; (348.15 K) 4.03 ± 0.27. Also, the activity coefficient (358.15 K) was found to be 3.92 ± 0.27 and the activity coefficient (368.15 K) was 3.81 ± 0.26.
For `CCCCC` [pentane] + CCCCCCOCn1cc[n+](C)c1.O=S(=O)([N-]S(=O)(=O)C(F)(F)F)C(F)(F)F, the activity coefficient was 7.34 ± 0.5 (298.15 K); 6.93 ± 0.47 (308.15 K); 6.54 ± 0.45 (318.15 K); 6.25 ± 0.43 (328.15 K); 5.92 ± 0.4 (338.15 K); 5.68 ± 0.39 (348.15 K). Further, the activity coefficient came to 5.43 ± 0.37 (358.15 K) and 5.21 ± 0.36 (368.15 K).
Turning to `CCCCC` [pentane] + CCCCCCOCn1cc[n+](COCCCCCC)c1.O=S(=O)([N-]S(=O)(=O)C(F)(F)F)C(F)(F)F, the activity coefficient was found to be 2.78 ± 0.19 (298.15 K); 2.69 ± 0.18 (308.15 K); 2.62 ± 0.18 (318.15 K); 2.54 ± 0.17 (328.15 K); 2.48 ± 0.17 (338.15 K); 2.43 ± 0.17 (348.15 K). Besides, the activity coefficient is, setting by setting: (358.15 K) 2.38 ± 0.16; (368.15 K) 2.33 ± 0.16.
With `CCCO` [propan-1-ol] + CCCCCCOCn1cc[n+](C)c1.O=S(=O)([N-]S(=O)(=O)C(F)(F)F)C(F)(F)F, the activity coefficient stood at 1.83 ± 0.12 (298.15 K); 1.64 ± 0.11 (308.15 K); 1.49 ± 0.1 (318.15 K); 1.36 ± 0.09 (328.15 K); 1.24 ± 0.08 (338.15 K); 1.15 ± 0.07 (348.15 K). The activity coefficient came out at 1.07 ± 0.07 (358.15 K) and 0.989 ± 0.062 (368.15 K).
In the case of `CCCO` [propan-1-ol] + CCCCCCOCn1cc[n+](COCCCCCC)c1.O=S(=O)([N-]S(=O)(=O)C(F)(F)F)C(F)(F)F, the activity coefficient runs as follows: (298.15 K) 1.31 ± 0.09; (308.15 K) 1.19 ± 0.08; (318.15 K) 1.09 ± 0.07; (328.15 K) 1 ± 0.063; (338.15 K) 0.929 ± 0.059; (348.15 K) 0.861 ± 0.055. Further, the activity coefficient worked out at 0.803 ± 0.052 (358.15 K) and 0.752 ± 0.049 (368.15 K).
As to `C1CCOC1` [tetrahydrofuran] + CCCCCCOCn1cc[n+](C)c1.O=S(=O)([N-]S(=O)(=O)C(F)(F)F)C(F)(F)F, the activity coefficient (298.15 K) is 0.424 ± 0.035; the activity coefficient (308.15 K) is 0.438 ± 0.035; the activity coefficient (318.15 K) amounted to 0.452 ± 0.036; the activity coefficient (328.15 K) came out at 0.466 ± 0.036; the activity coefficient (338.15 K) was determined as 0.479 ± 0.037; the activity coefficient (348.15 K) came out at 0.491 ± 0.037. Also, the activity coefficient runs as follows: (358.15 K) 0.504 ± 0.038; (368.15 K) 0.515 ± 0.038.
Take `C1CCOC1` [tetrahydrofuran] + CCCCCCOCn1cc[n+](COCCCCCC)c1.O=S(=O)([N-]S(=O)(=O)C(F)(F)F)C(F)(F)F: the activity coefficient (298.15 K) is 0.294 ± 0.031; the activity coefficient (308.15 K) came out at 0.304 ± 0.031; the activity coefficient (318.15 K) was found to be 0.314 ± 0.031; the activity coefficient (328.15 K) came to 0.324 ± 0.032; the activity coefficient (338.15 K) was 0.333 ± 0.032; the activity coefficient (348.15 K) amounted to 0.343 ± 0.032. Besides, the activity coefficient runs as follows: (358.15 K) 0.352 ± 0.032; (368.15 K) 0.36 ± 0.033.
Turning to `c1ccsc1` [thiophene] + CCCCCCOCn1cc[n+](C)c1.O=S(=O)([N-]S(=O)(=O)C(F)(F)F)C(F)(F)F, the activity coefficient came to 0.743 ± 0.049 (298.15 K); 0.744 ± 0.049 (308.15 K); 0.744 ± 0.049 (318.15 K); 0.745 ± 0.049 (328.15 K); 0.746 ± 0.049 (338.15 K); 0.746 ± 0.049 (348.15 K). Besides, the activity coefficient is, setting by setting: (358.15 K) 0.747 ± 0.049; (368.15 K) 0.747 ± 0.049.
Take `c1ccsc1` [thiophene] + CCCCCCOCn1cc[n+](COCCCCCC)c1.O=S(=O)([N-]S(=O)(=O)C(F)(F)F)C(F)(F)F: the activity coefficient is, setting by setting: (298.15 K) 0.578 ± 0.041; (308.15 K) 0.575 ± 0.041; (318.15 K) 0.571 ± 0.041; (328.15 K) 0.568 ± 0.041; (338.15 K) 0.565 ± 0.041; (348.15 K) 0.562 ± 0.04. Further, the activity coefficient by setting is: (358.15 K) 0.559 ± 0.04; (368.15 K) 0.557 ± 0.04.
For the compound `Cc1ccccc1` [toluene] + CCCCCCOCn1cc[n+](C)c1.O=S(=O)([N-]S(=O)(=O)C(F)(F)F)C(F)(F)F, the activity coefficient is, setting by setting: (298.15 K) 1.05 ± 0.066; (308.15 K) 1.06 ± 0.067; (318.15 K) 1.07 ± 0.068; (328.15 K) 1.08 ± 0.068; (338.15 K) 1.09 ± 0.069; (348.15 K) 1.1 ± 0.069. In addition, the activity coefficient is, setting by setting: (358.15 K) 1.1 ± 0.07; (368.15 K) 1.11 ± 0.07.
Take `Cc1ccccc1` [toluene] + CCCCCCOCn1cc[n+](COCCCCCC)c1.O=S(=O)([N-]S(=O)(=O)C(F)(F)F)C(F)(F)F: the activity coefficient is, setting by setting: (308.15 K) 0.743 ± 0.049; (318.15 K) 0.746 ± 0.049; (328.15 K) 0.749 ± 0.049; (338.15 K) 0.753 ± 0.05; (348.15 K) 0.756 ± 0.05; (358.15 K) 0.758 ± 0.05. Moreover, the activity coefficient (368.15 K) stood at 0.761 ± 0.05.
Consider `O` [water] + CCCCCCOCn1cc[n+](C)c1.O=S(=O)([N-]S(=O)(=O)C(F)(F)F)C(F)(F)F, for which the activity coefficient (298.15 K) was determined as 4.37 ± 0.3; the activity coefficient (308.15 K) was found to be 3.81 ± 0.26; the activity coefficient (318.15 K) was 3.32 ± 0.23; the activity coefficient (328.15 K) was 2.9 ± 0.2; the activity coefficient (338.15 K) stood at 2.57 ± 0.17; the activity coefficient (348.15 K) came to 2.28 ± 0.16. Also, the activity coefficient (358.15 K) was 2.04 ± 0.14.
On to `O` [water] + CCCCCCOCn1cc[n+](COCCCCCC)c1.O=S(=O)([N-]S(=O)(=O)C(F)(F)F)C(F)(F)F, for which the activity coefficient (298.15 K) was found to be 4.43 ± 0.3; the activity coefficient (308.15 K) came to 3.8 ± 0.26; the activity coefficient (318.15 K) is 3.31 ± 0.23; the activity coefficient (328.15 K) came to 2.93 ± 0.2; the activity coefficient (338.15 K) was found to be 2.53 ± 0.17; the activity coefficient (348.15 K) is 2.24 ± 0.15. Moreover, the activity coefficient is, setting by setting: (358.15 K) 2.02 ± 0.14; (368.15 K) 1.83 ± 0.12.
